Results: patent US20240261318A1, “ANTI-AGING COSMETIC COMPOSITION” (LG HOUSEHOLD & HEALTH CARE LTD., priority 2021, published 2024)

Test system: FGF10
Assay: Analysis of mRNA expression of FGF10 in human dermal fibroblasts (qPCR)
Assay type: cell-based
Settings: for Expression level (% relative to control): FGF10 mRNA, human dermal fibroblasts, 48 hours; for mRNA expression of FGF 10: human fibroblasts treated with the single substance, result in words
Method: Human dermal fibroblasts (neonatal) were purchased from Lonza and then cultured in a carbon dioxide incubator at 37° C. and 5% carbon dioxide. In this case, as a medium for culturing, a medium containing Dulbecco's modified eagle medium (DMEM; Thermo Fisher Scientific) with 10% fetal bovine serum (FBS) and 1% antibiotics (penicillin/streptomycin) was used. Afterward, 20000 cells were seeded in a 6-well plate, and 24 hours later, the DMEM culture medium was treated with each sample having compositions shown in Tables 1 and 2 and cultured again for another 48 hours. As a control, a DMEM culture medium not including any other components was used.

Row | SMILES | Expression level (% relative to control) (Table 1, sample at 8 ppm) [%] | Expression level (% relative to control) (Table 2, sample at 8 ppm) [%] | mRNA expression of FGF 10 | Expression level (% relative to control) (Table 1, sample at 0.2 ppm) [%] | Expression level (% relative to control) (Table 2, sample at 0.2 ppm) [%]
1 | Nc1ncnc2c1ncn2[C@@H]1O[C@H](CO)[C@@H](O)[C@H]1O [Adenosine, reference compound] | 88 | 88 | no effect on increasing the expression of FGF 10 |  | 
2 | C=C1CC[C@@H]2[C@](C)(CO)[C@H](O)CC[C@@]2(C)[C@@H]1C/C=C1/C(=O)OC[C@H]1O [Andrographolide, andrographolide] |  |  | promoted | 141 | 
3 | Nc1ncnc2c1ncn2[C@@H]1O[C@H](CO)C[C@H]1O [Cordycepin, cordycepin] | 148 |  | promoted |  | 102
4 | O=c1c(O)c(-c2ccc(O)c(O)c2)oc2cc(O)cc(O)c12 [Quercetin, quercetin] |  |  | promoted |  | 63
